Assay results: patent US8481543B2, “Compounds for treating parasitic disease” (Oregon Health & Science University, priority 2008, dated 2013)
Read-outs that look alike come from different tables or passages of the source.

How the values were obtained:
[1] = tested on: Plasmodium falciparum D6 strain (chloroquine sensitive); test: Antiplasmodial fluorescence-based SyBr Green assay, D6 strain; type: cell-based
Procedure: (§1) Parasite culture and drug susceptibility assays: Four different laboratory strains of P. falciparum were cultured in human erythrocytes by standard methods under a low oxygen atmosphere (5% O2, 5% CO2, 90% N2) in an environmental chamber (Trager, W., and J. Jensen. 1976. Human malaria parasites in continuous culture. Science 193:673-675). The culture medium was RPMI 1640, supplemented with 25 mM Hepes buffer, 25 mg/liter gentamicin sulfate, 45 mg/liter hypoxanthine, 10 mM glucose, 2 mM glutamine, and 0.5% Albumax II. The parasites were maintained in fresh human erythrocytes suspended at a 2% hematocrit in complete medium at 37° C. Stock cultures were sub-passaged every 3 to 4 days by transfer of infected red cells to a flask containing complete medium and uninfected erythrocytes.
(§2) In vitro antimalarial activity of the test compounds was assessed by a fluorescence-based method described previously by Smilkstein M., N. Sriwilaijaroen, J. X. Kelly, P. Wilairat, and M. Riscoe. 2004. Simple and inexpensive fluorescence-based technique for high-throughput antimalarial drug screening. Antimicrob Agents Chemother 48:1803-6. The experiments were set up in triplicate in 96 well plates with two-fold dilutions of each compound across the plate in a total volume of 100 μl and at a final red blood cell concentration of 2% (v/v). Stock solutions of each compound were prepared by dissolving in DMSO at 10 mM. […] In every case, an additional determination was performed to ensure bracketing of the IC50 value by at least an order of magnitude. Automated pipeting and dilution was carried out by a programmable Precision 2000 robotic station (Bio-Tek, Winooski, Vt.). An initial parasitemia of 0.2% was attained by addition of normal uninfected red cells to a stock culture of asynchronous parasite infected red cells (PRBC). The plates were incubated for 72 hrs at 37° C. in an atmosphere of 5% CO2, 5% O2, and 90% N2. After this period the SyBr Green I dye-detergent mixture (100 μl) was added and the plates were incubated at room temperature for an hour in the dark and then placed in a 96-well fluorescence plate reader (Gemini-EM, […]) for analysis with excitation and emission wavelength bands centered at 497 and 520 nm, respectively.

[2] = tested on: Plasmodium falciparum Dd2 strain (multidrug-resistant); test: Antiplasmodial fluorescence-based SyBr Green assay, Dd2 strain; type: cell-based; conditions: read-out: Antiplasmodial IC50, Dd2 strain
Procedure: as §1, §2

[3] = tested on: Plasmodium falciparum Tm90.C2B strain (multidrug-resistant); test: Antiplasmodial fluorescence-based SyBr Green assay, Tm90.C2B strain; type: cell-based; conditions: read-out: Antiplasmodial IC50, Tm90.C2B strain
Procedure: as §1, §2

[4] = tested on: Plasmodium falciparum 7G8 strain (multidrug-resistant); test: Antiplasmodial fluorescence-based SyBr Green assay, 7G8 strain; type: cell-based; conditions: read-out: Antiplasmodial IC50, 7G8 strain
Procedure: as §1, §2

[5] = tested on: P. falciparum strains (D6, Dd2, Tm90.C2B, 7G8); test: Antiplasmodial SyBr Green assay, summary across strains; type: cell-based, Plasmodium falciparum; conditions: for IC50: Plasmodium falciparum
Procedure: as §1
as §2, with “An initial parasitemia of 0.2% was attained by addition of normal uninfected red cells to a stock culture of asynchronous parasite infected red cells (PRBC). The plates were incubated for 72 hrs at 37° C. in an atmosphere of 5% CO2, 5% O2, and 90% N2.” left out

[6] = tested on: Plasmodium yoelii; test: Modified Thompson test, suppression of patent infection in mice; type: in vivo; conditions: P. yoelii in CF1 mice; gavage daily for 3 days; smears on 4th day; pharmachins free base in miglyol 812, chloroquine in water
Procedure: Efficacy of compounds in vivo. […] This test monitors suppression of patent infection in female CF1 Swiss albino mice (≈20 gm). A test begins with the inoculation of Plasmodium yoelii parasitized erythrocytes (100,000 to 500,000; obtained from a donor animal) on the first day of the experiment (D0). After 24 hours, the standard agents or pharmachin compounds were administered by gavage at daily intervals for three successive days. Initially the test compounds were examined at 128 mg/kg/day, 64 mg/kg/day, 16 mg/kg/day and 4 mg/kg/day and including a vehicle-only control. […] The parasite burden in each blood sample was determined by direct microscopic analysis of methanol-fixed, Giemsa-stained blood smears. […] The ED50 value is the dosage of drug required to achieve a 50% reduction in parasitemia relative to the vehicle-only control; non-linear regression analysis was employed to generate ED50s from the accumulated data.
Mice were split into groups of 3 each and animals were dosed by gavage at the following dosages: 128 mg/kg; 64 mg/kg; 16 mg/kg; and 3 mg/kg. The drugs were administered daily for 3 days and blood smears were taken on the 4th day. […] ED50 values were calculated by graphical analysis of the dose-response effect.

[7] = tested on: P. berghei (ANKA/GFP); test: Modified 4 day test in infected mice; type: in vivo
Procedure: Follow-up studies with Pharmachin 128 were preformed in mice infected with P. berghei (ANKA/GFP) using a modified 4 day test. Animals (CF1) were inoculated (iv) with 1 million infected red blood cells, obtained from donor animals, and then randomly sorted into groups of 5 mice each.
In this set of experiments Pharmachin 128 was administered daily by gavage as the citrate salt dissolved in water (100 μl) for each of 4 days. Dosing was set at 64, 16, 4, 2, and 1 mg/kg/day, respectively, and including a no drug control. Blood films were prepared on the 5th day (i.e., the day after the final drug dose), fixed in methanol, stained with Giemsa, and viewed microscopically to assess parasitemia.

[8] = Plasmodium falciparum, D6, 72 h; read-out: Antiplasmodial IC50, D6 strain
[9] = Plasmodium falciparum, multidrug-resistant Dd2 strain, 72 hrs, mean of at least two experiments in triplicate
[10] = multidrug-resistant Tm90.C2B strain, 72 hrs, mean of at least two experiments in triplicate
[11] = Plasmodium falciparum, multidrug-resistant 7G8 strain, 72 hrs, mean of at least two experiments in triplicate
[12] = 64 mg/kg/day, gavage, 4 days, citrate salt
[13] = P. berghei in CF1 mice, citrate salt in water by gavage daily for 4 days, parasitemia on 5th day

Compound	IC50 [1, 8] [nM]	IC50 [2, 9] [nM]	IC50 [3, 10] [nM]	IC50 [4, 11] [nM]	also measured
CCN(CC)CCNc1c(C)cnc2cc(Cl)ccc12 [Pharmachin 127, 7-Chloro-3-Methyl-4-(3-(diethylamino)-ethylamino)-Quinoline]	14.1	17.8	18.3	–	–
CCN(CC)CCCC(C)Nc1ccnc2cc(Cl)ccc12 (stereo not shown) [Chloroquine, reference compound]	–	–	–	–	IC50 ([1]; Plasmodium falciparum, D6, 72 h, read-out: Antiplasmodial IC50, D6 strain): 11.2 nM; IC50 ([2]; Plasmodium falciparum, DD2, 72 h): 160 nM; IC50 ([3]; TM90, 72 h): 144 nM; IC50 ([4]; Plasmodium falciparum, 7G8, 72 h): 55 nM
Cc1cnc2ccc(Cl)cc2c1NCCCNC(C)(C)C [Pharmachin 129, 6-Chloro-3-Methyl-4-(3-t-butylaminopropylamino)-Quinoline]	94.8	127	–	–	–
CCN(CC)CCCNC1=CCNc2cc(Cl)ccc21 [AQ-13, reference compound]	7.2	8.1	–	12	Antiplasmodial activity against all tested drug resistant strains ([5]; in words): high level of antiplasmodial activity
CCN(CC)CCCC(C)Nc1c(C)cnc2cc(Cl)ccc12 (stereo not shown) [Sontochin, 3-methyl-chloroquine, reference compound]	8.6	11.3	13.8	–	IC50 ([5]; range over strains as worded in text, read-out: IC50 values ranging, drug resistant strains of P. falciparum): 8.6 to 13.8 nM
Clc1ccc2c(NCCCNC34CC5CC(CC(C5)C3)C4)ccnc2c1 [AQ-13-AD, 7-Chloro-(3-adamantylamino)-aminopropylquinoline]	3.8	4.2	4.9	–	–
5.7-Difluoro-3-Methyl-4-(3-t-butylaminpropyl-amino)-Quinoline [Pharmachin 130]	–	–	–	–	IC50 ([1]; chloroquine sensitive D6 strain; 72 hrs; mean of at least two experiments in triplicate; read-out: Antiplasmodial IC50, D6 strain): 15 nM; IC50 ([2]; multidrug-resistant Dd2 strain, 72 hrs, mean of at least two experiments in triplicate): 21.9 nM; IC50 ([4]; multidrug-resistant 7G8 strain, 72 hrs, mean of at least two experiments in triplicate): 25.9 nM
Cc1cnc2cc(Cl)ccc2c1NCCCNC(C)(C)C [Pharmachin 128, 7-Chloro-3-Methyl-4-(3-t-butylaminopropylamino)-quinoline]	6.2	11.6	12	11.3	ED50 (50% reduction in parasitemia) [6]: 2.5 mg/kg/day; Animals recrudesced 2 weeks after the last dose ([7]; 16 mg/kg/day group, gavage, 4 days, citrate salt): 2 of the 5; Bloodstream parasites on 5th day ([7]; 16 mg/kg/day, gavage, 4 days, citrate salt): completely cleared; Bloodstream parasites on 5th day [7, 12]: completely cleared; Parasitemia over full 30-day examination period (scored as cures) [7, 12]: remained aparasitemic; ED50 [7, 13]: 2.7 mg/kg/day; ED90 [7, 13]: 4.7 mg/kg/day; IC50 ([5]; range over D6, Dd2, Tm90.C2B, 7G8, read-out: IC50 values ranging, all 4 P. falciparum strains): 6.2 to 12 nM
Cc1cnc2cc(Cl)ccc2c1N1CCN(CCCN2CCN(c3c(C)cnc4cc(Cl)ccc34)CC2)CC1 [3-methyl-piperaquine]	4.6	6.5	–	9.5	–
O=C1C(O)=C([C@H]2CC[C@H](c3ccc(Cl)cc3)CC2)C(=O)c2ccccc21 [Atovaquone, reference compound]	0.1	0.1	7700	–	–
CCN(CC)CCCNc1c(C)cnc2cc(Cl)ccc12 [Pharmachin 112, 7-Chloro-3-Methyl-4-(3-(diethylamino)-propylamino)-Quinoline]	12.8	17.7	16.6	–	ED50 (50% reduction in parasitemia) [6]: 6.5 mg/kg/day
C=C[C@H]1C[N@@]2CC[C@H]1C[C@H]2[C@H](O)c1ccnc2ccc(OC)cc12 [Quinine, reference compound]	19	87	96	29.5	–
